In patent publication US20110230501A1, “PHARMACEUTICAL COMPOSITIONS FOR THE TREATMENT OF DIABETES MELLITUS” (IPCA Laboratories Ltd., priority 2008, published 2011):
Marks after values point to notes of the source that are not given here.

Assays:
[1] = test system: alloxan induced diabetic rats; experiment: Alloxan induced diabetic rats: hydroxychloroquine with glimepiride; type: in vivo, Wistar rats; settings: nine days, HCQ 160 or GLM 8 mg/kg/day p.o.
Protocol: (§1) Thirty Wistar rats weighing 150-200 g of either sex were divided into six groups consisting of five rats each. Experimental diabetes was induced in rats by injecting alloxan monohydrate intraperitonially at a dose of 90 mg/kg body weight. Rats with blood sugar level of 250-350 mg/dl, were considered as diabetic and employed in the study. Group 1 (normal control) consisted of normal rats that neither received alloxan monohydrate nor any drug. Group 2′ served as diabetic control which received vehicle orally. […] The study drugs were administered for nine days.

[2] = test system: alloxan induced diabetic rats; experiment: Alloxan induced diabetic rats: hydroxychloroquine with pioglitazone; type: in vivo, Wistar rats; settings: nine days, HCQ 160 or PIO 10 mg/kg/day p.o.
Protocol: as §1, with “2” for “2′”

[3] = test system: sulphonylurea-refractory patients with poorly controlled Type 2 diabetes; settings: cited from earlier work
[4] = cited from earlier work
[5] = test system: alloxan induced diabetic rats; experiment: Alloxan induced diabetic rats: hydroxychloroquine with metformin; type: in vivo, Wistar rats; settings: nine days, HCQ 160 or MET 500 mg/kg/day p.o.
Protocol: as §1, with “2” for “2′”

[6] = test system: adults with rheumatoid arthritis; settings: cited from earlier work
[7] = cited from earlier work; remark: listed apart in the source
[8] = patients treated with hydroxychloroquine

SMILES	Blood Glucose (mg/dl) Final [1] [mg/dL]	Body Weight (g) Final [1] [g]	Alb. (Albumin) [1]	Blood Glucose (% mean change) [1]	Body Weight (% mean change) [1]	HDL (High Density Lipoprotein) [1]	Hb (Hemoglobin) [1]	TC (Total Cholesterol) [1]	TG (Triglyceride) [1]	Urea [1]	Blood Glucose (mg/dl) Final [2] [mg/dL]	Body Weight (g) Final [2] [g]	Alb. (Albumin) [2]	Blood Glucose (% mean change) [2]	Body Weight (% mean change) [2]	HDL (High Density Lipoprotein) [2]	Hb (Hemoglobin) [2]	TC (Total Cholesterol) [2]	TG (Triglyceride) [2]	Urea [2]	further results
CCC1=C(C)CN(C(=O)NCCc2ccc(S(=O)(=O)NC(=O)N[C@H]3CC[C@H](C)CC3)cc2)C1=O [GLM, glimepiride]	157.2 ± 17.64	170 ± 11.22	3.99 ± 0.24^a g/dl	(−46.83)^d %	(−3.40)^c %	33 ± 1.58^b mg/dl	14.04 ± 1.90^b g/dl	169.40 ± 7.05^b mg/dl	113.40 ± 3.64^b mg/dl	30.26 ± 0.86^b mg/dl											Protein (T) (Total Protein) [1]: 5.78 ± 1.22^b g/dl
CCN(CCO)CCCC(C)Nc1ccnc2cc(Cl)ccc12 (centres unmarked) [HCQ, hydroxychloroquine]	263.80 ± 2.04	151.60 ± 13.16	4.03 ± 0.13^a g/dl	(−10.81)^c %	(−10.51)^b %	35.80 ± 2.28^b mg/dl	12.12 ± 1.27^a g/dl	178.40 ± 2.70^c mg/dl	117.20 ± 2.28^b mg/dl	29.70 ± 1.37^b mg/dl	263.80 ± 2.04	151.60 ± 13.16	4.03 ± 0.13^a g/dl	(−10.81)^c %	(−10.51)^b %	35.80 ± 2.28^b mg/dl	12.12 ± 1.27^a g/dl	178.40 ± 2.70^c mg/dl	117.20 ± 2.28^b mg/dl	29.70 ± 1.37^b mg/dl	Blood Glucose (% mean change) ([2]; listed as hydroxychloroquine): −10.81%; glycemic control [3]: improved glycemic control; red blood cell aggregation ([4]; humans, without prolonging the bleeding time): reduction; plasma viscosity as well as whole blood viscosity ([4]; postoperative patients): significant reduction; Blood Glucose (mg/dl) Final [5]: 263.80 ± 2.04 mg/dL; Body Weight (g) Final [5]: 151.60 ± 13.16 g; Alb. (Albumin) [5]: 4.03 ± 0.13^a g/dl; Blood Glucose (% mean change) [5]: (−10.81)^c %; Body Weight (% mean change) [5]: (−10.51)^b %; HDL (High Density Lipoprotein) [5]: 35.80 ± 2.28^b mg/dl; Hb (Hemoglobin) [5]: 12.12 ± 1.27^a g/dl; TC (Total Cholesterol) [5]: 178.40 ± 2.70^c mg/dl; TG (Triglyceride) [5]: 117.20 ± 2.28^b mg/dl; Urea [5]: 29.70 ± 1.37^b mg/dl; Blood Glucose (% mean change) ([5]; listed as hydroxychloroquine): −10.81%; risk of diabetes [6]: reduced risk of diabetes; serum levels of cholesterol, triglycerides, and LDL ([7]; irrespective of concomitant steroid administration): high statistical association with low serum levels; HDL and % HDL [7, 8]: rise; decrease in serum levels of cholesterol [7, 8]: approximately 10%; Blood Glucose (% mean change) ([1]; listed as hydroxychloroquine): −10.81%
CN(C)C(=N)N=C(N)N [MET, metformin]																					Blood Glucose (mg/dl) Final [5]: 148.8 ± 17.35 mg/dL; Body Weight (g) Final [5]: 173.8 ± 7.19 g; Alb. (Albumin) [5]: 4.52 ± 1.12^a g/dl; Blood Glucose (% mean change) [5]: (−47.58)^d %; Body Weight (% mean change) [5]: (−10.51) c %; HDL (High Density Lipoprotein) [5]: 34.40 ± 2.51^b mg/dl; Hb (Hemoglobin) [5]: 12.80 ± 1.25^b g/dl; Protein (T) (Total Protein) [5]: 6.75 ± 0.80^b g/dl; TC (Total Cholesterol) [5]: 170.40 ± 5.90^b mg/dl; TG (Triglyceride) [5]: 111.20 ± 5.93^b mg/dl; Urea [5]: 31.49 ± 1.81^b mg/dl; Blood Glucose (% mean change) ([5]; listed as Metformin): 47.58%
CCc1ccc(CCOc2ccc(CC3SC(=O)NC3=O)cc2)nc1 (centres unmarked) [PIO, pioglitazone]											175.8 ± 5.48	159.20 ± 11.21	4.03 ± 0.14^a g/dl	(−41.92)^a %	(−6.07)^a %	35.8 ± 2.28^b mg/dl	12.12 ± 1.27^b g/dl	178.4 ± 2.70^b mg/dl	117.2 ± 2.28^b mg/dl	29.69 ± 1.37^b mg/dl	Protein (T) (Total Protein) [2]: 6.06 ± 1.43^b g/dl
